Where a name gives a salt, the structure may show the parent alone.
Assays:
Test in all cases: Anti-proliferation assay (ATPLite), Chalice synergy score
Type in all cases: cell-based
[1] = test system: HCC-1500; design: scale not given here; details: Compound 1 in combination with the named second active agent, 72 h, mean of n = 3 experiments in triplicate
Excerpt: (§1) Cells were thawed from a liquid nitrogen preserved state.
(§2) The calculation for synergy score is provided below.
(§3) If T≧V0:100*[1−(T−V0)/(V−V0)]

[2] = test system: BT-20; design: scale not given here; details: Compound 1 in combination with the named second active agent, 72 h, mean of n = 3 experiments in triplicate
Excerpt: as §1, §2, §3

[3] = test system: HCC-1187; design: scale not given here; details: Compound 1 in combination with the named second active agent, 72 h, mean of n = 3 experiments in triplicate
Excerpt: as §1, §2, §3

[4] = test system: BT-549; details: Compound 1 in combination with the named second active agent, 72 h, mean of n = 3 experiments in triplicate
Excerpt: as §1, §2, §3

[5] = test system: MDA-MB-468; details: Compound 1 in combination with second active agent, mean self-cross + 2σ threshold 4.66
Excerpt: as §1, §2, §3

[6] = test system: HCC-1806; details: Compound 1 in combination with the named second active agent, 72 h, mean of n = 3 experiments in triplicate
Excerpt: as §1, §2, §3

[7] = test system: MDA-MB-231; details: Compound 1 in combination with second active agent, mean self-cross + 2σ threshold 2.61
Excerpt: as §1, §2, §3

[8] = test system: MCF7; details: Compound 1 in combination with second active agent, mean self-cross + 2σ threshold 3.07
Excerpt: as §1, §2, §3

[9] = test system: HCC-1428; details: Compound 1 in combination with the named second active agent, 72 h, mean of n = 3 experiments in triplicate
Excerpt: as §1, §2, §3

[10] = test system: Hs-578-T; details: Compound 1 in combination with second active agent, mean self-cross + 2σ threshold 4.09
Excerpt: as §1, §2, §3

[11] = test system: MDA-MB-157; details: Compound 1 in combination with second active agent, mean self-cross + 2σ threshold 4.68
Excerpt: as §1, §2, §3

[12] = test system: BT-474; details: Compound 1 in combination with the named second active agent, 72 h, mean of n = 3 experiments in triplicate
Excerpt: as §1, §2, §3

[13] = test system: HCC-1937; details: Compound 1 in combination with the named second active agent, 72 h, mean of n = 3 experiments in triplicate
Excerpt: as §1, §2, §3

[14] = test system: MDA-MB-436; details: Compound 1 in combination with second active agent, mean self-cross + 2σ threshold 1.91
Excerpt: as §1, §2, §3

[15] = test system: HCC70; details: Compound 1 in combination with second active agent; HCC-70; mean self-cross + 2σ threshold 3.45
Excerpt: as §1, §2, §3

Compound	Synergy score [1]	Synergy score [2]	Synergy score [3]	Synergy score [4]	Synergy score [5]	Synergy score [6]	Synergy score [7]	Synergy score [8]	Synergy score [9]	Synergy score [10]	Synergy score [11]	Synergy score [12]	Synergy score [13]	Synergy score [14]	Synergy score [15]
COc1ccc(-c2cc3nccn3c(Nc3ncccc3C(N)=O)n2)cc1OC.Cl [BAY61-3606 Hydrochloride]	0.02	0.20	3.17	2.31	5.47	0.48	0.79	1.49	1.21	5.49	1.49	0.04	0.18	0.94	3.93
CS(=O)(=O)c1ccc(C(=O)Nc2ccc(Cl)c(-c3ccccn3)c2)c(Cl)c1 [GDC-0449]	0.78	0.11	3.07		0.44	0.20	0.08		0.07	0.28	0.77	1.47	0.88		1.10
c1ccc2c(CCNc3ccc(Nc4ccncc4)cc3)c[nH]c2c1 [JNJ 26854165]	1.50	1.42	1.63	0.78	3.28	2.51	0.31	1.82	1.02	1.28	2.53	1.77		1.47	2.46
C=CCn1c(=O)c2cnc(Nc3ccc(N4CCN(C)CC4)cc3)nc2n1-c1cccc(C(C)(C)O)n1 [MK1775]	2.46	5.01	1.30	2.99	7.69	0.55	2.31	5.76	3.25	9.02	2.68	9.61	7.93	1.45	12.10
O=C(NC1CCNCC1)c1[nH]ncc1NC(=O)c1c(Cl)cccc1Cl [AT7519]	0.03	4.95		4.33	1.98	1.01	2.68	2.84	1.58	5.16	5.37	0.19	2.04	2.57	0.86
C=CC(=O)N1CCC[C@@H](n2nc(-c3ccc(Oc4ccccc4)cc3)c3c(N)ncnc32)C1 [PCI-32765]	0.56	6.26	1.70	0.05	3.10	3.72	0.27	0.13	0.59		3.28	5.95	1.62	0.07	6.29
CHIR98014		0.17	3.13	0.49	3.00	1.56	3.91	0.29	0.72	5.48	3.17	0.02	0.63	0.64	0.82
COc1ccc(C2=N[C@@H](c3ccc(Cl)cc3)[C@@H](c3ccc(Cl)cc3)N2C(=O)N2CCNC(=O)C2)c(OC(C)C)c1 [Nutlin-3]	2.54	0.27	2.08	0.40		0.79	0.27	2.05	0.33	1.65	0.66	0.34	0.58	0.50	2.72
CC(=O)c1c(C)c2cnc(Nc3ccc(N4CCNCC4)cn3)nc2n(C2CCCC2)c1=O [PD-0332991]	2.71		2.76	1.10	2.12	1.54	2.88	2.48	2.01	0.75	0.73	0.31	0.55	0.44	2.17
Oc1c2ccccc2c2c3c(cccc13)N=N2 [SP 600125]	1.15	0.00	5.59	1.47		1.16	0.65	0.75	1.44	0.97	1.18	0.72	0.87	0.79	3.49
CCc1c2c(nc3ccc(OC(=O)N4CCC(N5CCCCC5)CC4)cc13)-c1cc3c(c(=O)n1C2)COC(=O)[C@]3(O)CC [Irinotecan Hydrochloride]	4.45	2.59	3.01	1.25	8.45		1.64	2.02	0.76		5.71	1.17	3.92	3.61	1.98
CNC(=O)c1ccc(-c2cnc3ncc(Cc4ccc5ncccc5c4)n3n2)cc1F [INCB28060]	0.52		2.94	0.66	0.80	0.62	0.34	0.92	0.75	0.85	0.97	2.35	0.71	0.49	0.75
CC(C)(C)Cn1c(N)nc2ccc(-c3[nH]c(C(C)(C)C)nc3-c3ccc(F)cc3)nc21 [LY2228820]	3.91	0.20	0.80	1.26	5.77	2.81	2.18	3.76	1.80		5.64	2.81		1.32	3.65
